Experimental data taken from ChEMBL document CHEMBL1132820, “DNA minor groove interactions and the biological activity of 2,5-bis” (Bioorg Med Chem Lett, 2000).

Tests used:
Rattus norvegicus [1] = experiment: Number of mean cysts/g of lung tissue observed at 9-10 uM/kg/day dose of compound tested in vivo against Pneumocystis carinii pneumonia infected rats; assay type: functional
Rattus norvegicus [2] = experiment: Number of mean cysts/g of lung tissue observed at 0.9 uM/kg/day dose of compound tested in vivo against Pneumocystis carinii pneumonia infected rats; assay type: functional

Row | SMILES | PCP activity (Rattus norvegicus [1]) [cysts g-1] | PCP activity (Rattus norvegicus [2]) [cysts g-1]
1 | N=C(NC1CCCCC1)c1ccc(-c2ccc(-c3ccc(C(=N)NC4CCCCC4)cc3)o2)cc1 | 0.02 | 26.2
2 | N=C(NC1CCCC1)c1ccc(-c2ccc(-c3ccc(C(=N)NC4CCCC4)cc3)o2)cc1 | 0.03 | 0.11
3 | N=C(NC1CCC1)c1ccc(-c2ccc(-c3ccc(C(=N)NC4CCC4)cc3)o2)cc1 | 0.05 | 0.67
